Assay results as given in patent US20190374590A1, “USE OF CORDYCEPS MILITARIS EXTRACT FOR TREATMENT OF RENAL DISEASE” (Nan Pao Resins Chemical Co., Ltd., priority 2018, published 2019).

Columns and labels:
[1] = system: nephrin protein level in AB8/13 human podocytes; assay: Western blotting of nephrin protein level in differentiated AB8/13 human podocytes; format: cell-based; conditions: FIG. 1; substance alone, compared to dimethyl sulfoxide; 6 days incubation
Protocol: (§1) Firstly, AB8/13 human podocytes were incubated in a 33[…] incubator containing 5% carbon dioxide until they grew to a confluence of 80%. The cells were transferred to a 37.5[…] incubator containing 5% carbon dioxide to be incubated for 14 days so that the cells were differentiated. After which, the differentiated cells were incubated with culture medium containing various substances for 6 days. Finally, total protein of the differentiated cells treated with various substances was extracted for Western blotting assay.
(§2) As stated in Diabetes, 2011 Jun; 60(6): 1779-1788, transforming growth factor-β1 (TGF-β1) is greatly expressed in the renal tissue of a diabetic nephropathy patient. This paper further has reported that transforming growth factor-β1 can dedifferentiate differentiated podocytes and induce the disappearance of pseudopods. As stated in Cell Tissue Res. 2012 Jan; 347(1): 141-54, transforming growth factor-β1 participates in renal fibrosis, renal parenchyma degeneration and loss of function associated with chronic kidney disease. For the above reasons, podocytes treated with transforming growth factor-β1 can be used as a cell culture model for renal disease.

[2] = system: a-smooth muscle actin protein level in AB8/13 human podocytes; assay: Western blotting of α-smooth muscle actin protein level in differentiated AB8/13 human podocytes; format: cell-based; conditions: FIG. 2; substance alone (without TGF-β1), compared to dimethyl sulfoxide; 6 days incubation
Protocol: as §1, §2

Substance: transforming growth factor-β1
- nephrin protein level [1]: downregulate
- a-smooth muscle actin protein level [2]: upregulate
